Measurements published in patent US20130236504A1, “Delivery System for Enhancing Drug Efficacy” (CLEMSON UNIVERSITY, priority 2012, published 2013).

Test system: U138 cells
Assay: MTT cell viability / cytotoxicity assay in U138 cells
Procedure: Various drug combinations were incubated with U138 cells in cell culture media and the cells were then washed with PBS and added fresh media.

[1] = therapeutic agent at 100 nM compared with non-toxic chemo-adjuvant O6-BG at 100 uM (FIG. 4)

For `Nc1nc(OCc2ccccc2)c2nc[nH]c2n1` [O6-BG, O6-Benzylguanine], the cytotoxicity (free O6-BG 100 μg/ml (FIG. 6)) was “not cytotoxic” and the cell viability (incubation with various concentrations of O6-BG (FIG. 3)) was “some effect on cell viability at very high concentrations”.
With `C=CC(=O)Nc1cc2c(Nc3ccc(F)c(Cl)c3)ncnc2cc1OCCCN1CCOCC1` [canertinib] the cell viability [1] was “cell viability is lower”.
`CC(=O)O[C@H]1C(=O)[C@@]2(C)[C@H]([C@H](OC(=O)c3ccccc3)[C@]3(O)C[C@H](OC(=O)[C@H](O)[C@@H](NC(=O)c4ccccc4)c4ccccc4)C(C)=C1C3(C)C)[C@]1(OC(C)=O)CO[C@@H]1C[C@@H]2O` [paclitaxel] was tested, and the cell viability [1] was “cell viability is lower”.
